In patent US20240059703A1 (AMGEN INC., priority 2021, published 2024):

How the values were obtained:
[1] = target: KRAS G12C (Homo sapiens (Human), UniProt P01116, C118A/G12C); assay: 2 h coupled exchange assay; type: biochemical; details: Avg 2 h Coupled exchange IC50, 2 h compound pre-incubation
Description: The term “2 h coupled exchange assay” or “20 h coupled exchange assay” as used herein refers to the assay described in the Section entitled “BIOLOGICAL EVALUATION.”

[2] = tested on: MIA PaCa-2 (human pancreatic carcinoma) cells; assay: Cell Viability Assay (CellTiter-Glo), MIA PaCa-2; type: cell-based
Description: Serially-diluted compound or DMSO was added to the cells, and plates were incubated at 37° C., 5% CO2 for 72 h. Cell viability was measured using a CellTiter-Glo® Luminescent Cell Viability Assay kit (Promega) according to the manufacturer's protocol. The luminescence signal of treated samples was normalized to DMSO control, and data were analyzed using a 4-parameter logistic model to calculate IC50 values.

[3] = tested on: A549 (human lung carcinoma) cells; assay: Cell Viability Assay (CellTiter-Glo), A549; type: cell-based; details: Homo sapiens, A549, 72 h
Procedure, shortened: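 After a 72 h exposure to serial compound dilutions at 37° C, luminescent ATP content was measured with CellTiter-Glo. The cells were A549 or MIA PaCa-2, seeded at 1.67E+04 cells/mL in RPMI 1640 with 10% serum. Signals were normalized to DMSO controls and IC50 fitted with a 4-parameter logistic model.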

[4] = SOS-mediated nucleotide exchange

Sequence of KRAS G12C (P01116 other isoform, or with tags, fused parts or gaps G12C/C118A): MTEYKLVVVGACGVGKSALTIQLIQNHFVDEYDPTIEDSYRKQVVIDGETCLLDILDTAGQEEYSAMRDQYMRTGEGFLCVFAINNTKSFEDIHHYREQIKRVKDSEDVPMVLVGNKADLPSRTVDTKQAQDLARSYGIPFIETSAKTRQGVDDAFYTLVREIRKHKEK

Compound	IC50 [1]	IC50 ([2]; Homo sapiens, MIA PaCa-2, 72 h)	IC50 [3]	IC50 [1, 4]	IC50 ([2]; 72 h)
C=CC(=O)N1CC2(CCN(c3nc4c(c(-c5ccccc5Cl)c3C#N)CCC(c3scnc3C)=C4)C2)C1 [Example 23-19, 4-(2-chlorophenyl)-7-(4-methyl-1,3-thiazol-5-yl)-2-(2-(2-propenoyl)-2,6-diazaspiro[3.4]octan-6-yl)-5,6-dihydro-3-quinolinecarbonitrile]	87 nM	537 nM	3290 nM		
C=CC(=O)N1CC2(CCN(c3nc4cc(-c5scnc5C)ccc4c(-c4ccc(F)cc4F)c3C#N)C2)C1 [Example 20-13, 4-(2,4-difluorophenyl)-7-(4-methyl-1,3-thiazol-5-yl)-2-(2-(2-propenoyl)-2,6-diazaspiro[3.4]octan-6-yl)-3-quinolinecarbonitrile]	104 nM	1070 nM	5980 nM		
C=CC(=O)N1CC2(CCN(c3nc4c(c(-c5c(C)ccc6[nH]ncc56)c3C#N)CC3(CC4)CC3)C2)C1 [Example 13-11, 4′-(5-methyl-1H-indazol-4-yl)-2′-(2-(2-propenoyl)-2,6-diazaspiro[3.4]octan-6-yl)-7′,8′-dihydro-5′H-spiro[cyclopropane-1,6′-quinoline]-3′-carbonitrile]		537 nM	4240 nM	67 nM	
C=CC(=O)N1CC2(CCN(c3nc4c(c(-c5ccc(F)c6sc(N)nc56)c3C#N)COC(C)(C)C4)C2)C1 (single isomer, unassigned) [Example 14-57, (P)-4-(2-amino-7-fluoro-1,3-benzothiazol-4-yl)-7,7-dimethyl-2-(2-(2-propenoyl)-2,6-diazaspiro[3.4]octan-6-yl)-7,8-dihydro-5H-pyrano[4,3-b]pyridine-3-carbonitrile]	40 nM	71 nM	> 5000 nM		
C=CC(=O)N1CC2(CCN(c3nc4c(c(-c5ccccc5C)c3C#N)CCC(c3scnc3C)=C4)C2)C1 [Example 23-11, 4-(2-methylphenyl)-7-(4-methyl-1,3-thiazol-5-yl)-2-(2-(2-propenoyl)-2,6-diazaspiro[3.4]octan-6-yl)-5,6-dihydro-3-quinolinecarbonitrile]	53 nM	637 nM	> 5000 nM		
C=CC(=O)N1CC2(CCN(c3nc4c(c(-c5ccc(F)c6sc(N)nc56)c3C#N)COC(C)(C)C4)C2)C1 [Example 14-56, 4-(2-amino-7-fluoro-1,3-benzothiazol-4-yl)-7,7-dimethyl-2-(2-(2-propenoyl)-2,6-diazaspiro[3.4]octan-6-yl)-7,8-dihydro-5H-pyrano[4,3-b]pyridine-3-carbonitrile]	93 nM	135 nM	> 5000 nM		
C=CC(=O)N1CC2(CCN(c3nc4c(c(-c5c(C)ccc6[nH]ncc56)c3C#N)COC4(C)C)C2)C1 [Example 13-100, 2-(2-acryloyl-2,6-diazaspiro[3.4]octan-6-yl)-7,7-dimethyl-4-(5-methyl-1H-indazol-4-yl)-5,7-dihydrofuro[3,4-b]pyridine-3-carbonitrile]		947 nM	> 5000 nM	124 nM	
C=CC(=O)N1CC2(CCN(c3nc4cc(OC)ccc4c(-c4c(C)ccc5cn[nH]c45)c3C)C2)C1 [Example 2-49, 1-(6-(7-methoxy-3-methyl-4-(6-methyl-1H-indazol-7-yl)-2-quinolinyl)-2,6-diazaspiro[3.4]octan-2-yl)-2-propen-1-one]		1210 nM	> 5000 nM	323 nM	
C=CC(=O)N1CC2(CCN(c3nc4c(c(-c5cccc6c5NCCC6)c3C)CCN(C(C)C)C4)C2)C1 [Example 18-5, 1-(6-(3-methyl-7-(2-propanyl)-4-(1,2,3,4-tetrahydro-8-quinolinyl)-5,6,7,8-tetrahydro-1,7-naphthyridin-2-yl)-2,6-diazaspiro[3.4]octan-2-yl)-2-propen-1-one]	990 nM	546 nM	15300 nM		
C=CC(=O)N1CC2(CCN(c3nc4c(c(-c5cc(O)c(F)cc5Cl)c3C#N)C[C@H]3C[C@@H]4C3(C)C)C2)C1 [Example 14-84, (1R,9R)-6-(2-chloro-4-fluoro-5-hydroxyphenyl)-10,10-dimethyl-4-(2-(2-propenoyl)-2,6-diazaspiro[3.4]octan-6-yl)-3-azatricyclo[7.1.1.0^2,7]undeca-2,4,6-triene-5-carbonitrile]	144 nM	2150 nM	> 5000 nM		
C=CC(=O)N1CC2(CCN(c3nc4c(c(-c5c(C)ccc6cnn(C)c56)c3C#N)[C@@H]3CC[C@H]4C3)C2)C1 (single isomer, unassigned) [Example 14-17]		51 nM	> 5000 nM	22 nM	
C=CC(=O)N1CC2(CCN(c3nc4c(c(-c5c(C)ccc(OC)c5N)c3C#N)COC(C)(C)C4)C2)C1 [Example 37-1, 4-(2-amino-3-methoxy-6-methylphenyl)-7,7-dimethyl-2-(2-(2-propenoyl)-2,6-diazaspiro[3.4]octan-6-yl)-7,8-dihydro-5H-pyrano[4,3-b]pyridine-3-carbonitrile]	214 nM	96 nM	> 25000 nM		
C=CC(=O)N1CC2(CCN(c3nc4cc(-c5scnc5C)cnc4c(-c4ccc(F)cc4F)c3C#N)C2)C1 [Example 19-5, 4-(2,4-difluorophenyl)-7-(4-methyl-1,3-thiazol-5-yl)-2-(2-(2-propenoyl)-2,6-diazaspiro[3.4]octan-6-yl)-1,5-naphthyridine-3-carbonitrile]	96 nM	452 nM	> 5000 nM		
C=CC(=O)N1CC2(CCN(c3nc4c(c(-c5cc(O)cc6ccccc56)c3C)CCC(C)(C)C4)C2)C1 [Example 2-27, 1-(6-(4-(3-hydroxy-1-naphthalenyl)-3,7,7-trimethyl-5,6,7,8-tetrahydro-2-quinolinyl)-2,6-diazaspiro[3,4]octan-2-yl)-2-propen-1-one]		214 nM	> 5000 nM	102 nM	
C=CC(=O)N1CC2(CCN(c3nc4c(c(-c5ccccc5C)c3C#N)CC[C@H](c3scnc3C)C4)C2)C1 (single isomer, unassigned) [Example 23-4]	19 nM		11000 nM		184 nM
C=CC(=O)N1CC2(CCN(c3nc4c(c(-c5ccc(F)cc5F)c3C#N)CCN(c3ccc(OC)cc3)C4)C2)C1 [Example 21-7, 4-(2,4-difluorophenyl)-7-(4-methoxyphenyl)-2-(2-(2-propenoyl)-2,6-diazaspiro[3.4]octan-6-yl)-5,6,7,8-tetrahydro-1,7-naphthyridine-3-carbonitrile]	94 nM	749 nM	6020 nM		
C=CC(=O)N1CC2(CCN(c3nc4cc(-n5ccnc5C)ccc4c(-c4ccccc4F)c3C#N)C2)C1 [Example 17-5, 4-(2-fluorophenyl)-7-(2-methyl-1H-imidazol-1-yl)-2-(2-(2-propenoyl)-2,6-diazaspiro[3.4]octan-6-yl)-3-quinolinecarbonitrile]	70 nM	1270 nM	4430 nM		
C=CC(=O)N1CC2(CCN(c3nc4c(c(-c5c(F)ccc6[nH]ncc56)c3C#N)COC(C)(C)C4)C2)C1 [Example 13-149, 4-(5-fluoro-1H-indazol-4-yl)-7,7-dimethyl-2-(2-(2-propenoyl)-2,6-diazaspiro[3.4]octan-6-yl)-7,8-dihydro-5H-pyrano[4,3-b]pyridine-3-carbonitrile]		616 nM	11200 nM	276 nM	
